Source: PubChem BioAssay (NCI)
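48-hour exposure; five concentrations; linearly interpolated endpoints. TGI: concentration producing complete growth inhibition.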

Legend:
Test in all cases: NCI anticancer screen, dose series, 48 h
[1] = test system: SF-539 CNS
[2] = test system: MDA-MB-231 breast
[3] = test system: 786-0 renal
[4] = test system: SW-620 colon
[5] = test system: SK-OV-3 ovarian
[6] = test system: MCF7 breast
[7] = test system: OVCAR-4 ovarian
[8] = test system: SF-295 CNS
[9] = test system: SR leukemia
[10] = test system: SF-268 CNS
[11] = test system: HCT-15 colon
[12] = test system: EKVX NSCLC
[13] = test system: SK-MEL-2 melanoma
[14] = test system: MALME-3M melanoma
[15] = test system: RXF 393 renal
[16] = test system: BT-549 breast

Row | Structure (SMILES) | TGI [1] [µM] | TGI [2] [µM] | TGI [3] [µM] | TGI [4] [µM] | TGI [5] [µM] | TGI [6] [µM] | TGI [7] [µM] | TGI [8] [µM] | TGI [9] [µM] | TGI [10] [µM] | TGI [11] [µM] | TGI [12] [µM] | TGI [13] [µM] | TGI [14] [µM] | TGI [15] [µM] | TGI [16] [µM]
1 | CC1(C)CC(=O)/C(=C/C2CCNC2=S)C(=O)N1 (stereo not drawn) | > 100 | > 100 | > 100 | > 100 | > 100 | > 100 | > 100 | > 100 | > 100 | > 100 | > 100 | > 100 | > 100 | > 100 |  | 
2 | C=C[C@@]1(C)CCC2(O)C(CCC3C2(C)CCC[C@@]3(C)COC(=O)CC(=O)OC)C1 (stereo partly drawn) | 36.1 |  | > 100 | 31.7 | > 100 |  | 33.3 |  | 43.9 | 55.3 | 34.9 |  |  | 32.3 | 61.5 | 
3 | CCN(CC)CCNc1ccc2ncn3c4c(OC)ccc(OC)c4c(=O)c1c23 | 44.1 | 29.1 | 70.9 | 18.2 | 44.9 | 17 |  | 29.7 | 43.6 | 17.2 | 38.5 | 35.6 |  | 41.8 | 10.3 | 
4 | Cc1cc(C)nc(NS(=O)(=O)c2ccc(NN=c3c4ccccc4n(C)c4ccccc34)cc2)n1 | > 100 | > 100 | > 100 | > 100 | > 100 | 55.7 | 99.3 | > 100 |  | > 100 | > 100 | 97.7 | 58.8 | 91.3 | 50.8 | > 100
5 | C=C(C)C#CC(O)(C(=O)OC1CCN(C)CC1)C(C)C (stereo not drawn) | > 100 | > 100 | > 100 | > 100 | > 100 | > 100 |  | > 100 | > 100 | > 100 | > 100 | > 100 |  | > 100 | > 100 | 
6 | C=C1CC(Cn2ccc(=O)[nH]c2=O)(c2ccc(-c3ccccc3)cc2)OC1=O (stereo not drawn) | 8.89 | 5.8 | 1.67 | 0.941 | 21.1 | 2.67 |  | 25.3 |  | 46.3 | 3.72 | 29.9 | 4.55 | 3.42 |  | 3.73
7 | CC(NC(=O)C(OC(=O)C(C)NC(=O)OC(C)(C)C)C(C)C)C(=O)OC(C(=O)O)C(C)C (stereo not drawn) | > 100 | > 100 | > 100 | > 100 | > 100 |  |  | > 100 | > 100 | > 100 | > 100 | > 100 | > 100 | > 100 | > 100 | > 100
8 | CC(=O)OCCOCNC(=S)N/N=C/c1ccc2ccccc2n1 | > 100 |  | > 100 | > 100 | > 100 |  | > 100 | > 100 | > 100 | > 100 | > 100 | > 100 | > 100 | > 100 | > 100 | 
9 | NCCC(=O)N[C@H](Cc1cc(O)c(O)c(SCC(NC(=O)CC[C@H](N)C(=O)O)C(=O)NCC(=O)O)c1)C(=O)O (stereo partly drawn) |  | > 50 | > 50 | > 50 | > 50 | > 50 | > 50 | > 50 |  | > 50 | > 50 | > 50 | > 50 | > 50 | > 50 | > 50
10 | CC12CCC([C@H](N3CCOCC3)/C1=N\OCCN1CCCC1)C2(C)C (stereo partly drawn) | > 100 |  | > 100 | > 100 | > 100 |  | > 100 | > 100 | > 100 | > 100 | > 100 | > 100 | > 100 | > 100 | > 100 | 
11 | O=c1cc(CO)n(CCc2c[nH]c3ccccc23)cc1O | > 100 | > 100 | 98.1 | > 100 | > 100 | 59.6 |  | > 100 |  | 53.2 | > 100 | > 100 | > 100 | 57.5 |  | > 100
12 | CC1(c2cccc3c2C2(O)C=CC4(CCC32)OCCO4)OCCO1 (stereo not drawn) | > 100 |  | > 100 | > 100 | > 100 |  | > 100 | > 100 |  | > 100 | > 100 | > 100 | > 100 | > 100 | > 100 | 
13 | CC1=CCC2(C#N)CCC1C2O (stereo not drawn) | > 100 |  | > 100 |  | > 100 |  | > 100 | > 100 | > 100 | > 100 | > 100 | > 100 | > 100 | > 100 | > 100 | 
14 | NC(=O)c1cc(-c2ccc(-n3ccnc3)cc2)n[nH]c1=O | > 100 |  | > 100 | > 100 | > 100 | > 100 | > 100 |  | > 100 | > 100 | > 100 | > 100 |  | > 100 | > 100 | > 100
15 | COc1ccc(-c2cnoc2-c2ccc(OC)c(OC)c2)cc1OC | 3.3 |  | 6.9 | > 37.5 | 5.41 |  | > 100 | 4.27 |  | 15 | 9.01 | 20.7 | 42.7 |  |  | 
16 | COc1ccc(N(C)CN(C)c2nc(N(C)C)nc(N(C)C)n2)cc1 | > 100 |  | > 100 | > 100 | > 100 |  | > 100 | > 100 | > 100 | > 100 | > 100 | > 100 | > 100 | > 100 |  | 
17 | COc1cccc(/C(CC(O)(C(F)(F)F)C(F)(F)F)=N\N(C)C)c1 | > 100 | > 100 | > 100 | > 100 | > 100 |  | > 100 | > 100 | > 100 | > 100 | > 100 | > 100 | > 100 | > 100 | > 100 | 
